2 molecules from patent US6929667B2, “Method for the fluorescent whitening of cotton” (Ciba Specialty Chemicals Corporation, priority 2000, dated 2005) can be followed below.

Series [1] can be described thus: Determination of pH stability: Ganz whiteness of bleached cotton padded with the stored solutions. Particulars: liquor pick-up 65%. Here is the method:
(§1) The sensitivity of the test compounds (102)-(104) of the invention and of the commercial compound (103) to acidic pH values is evaluated in a bath and on the cotton fabric.
(§2) A solution containing 0.8 g/l of the test compound (as active ingredient) in drinking water (approximately 11° German hardness) is prepared and separate samples of the solution are adjusted to different pH values and stored in the dark at 25° C. The appearance of each sample is assessed immediately and also after 1, 2 and 4 hours storage.
Following the 4 hour appearance assessment, separate samples of bleached cotton are padded with the respective solutions (liquor pick-up 65%). The fabric samples are dried at 70° C. for 20 minutes and the whiteness values determined according to the method of Ganz.

The nature of series [2]: Determination of fibre affinity: Ganz whiteness of bleached cotton after exhaust treatment at 95° C. Particulars: for Whiteness Value: Ganz whiteness, 0.2% whitener on fibre weight, exhaust method, liquor ratio 1:40, up to 95° C., measure of affinity to cotton. Here is the method:
Various bleached cotton swatches are treated by the exhaust method in an aqueous bath having the following composition: • 0.2% of test fluorescent whitener (100% active substance), based on the weight of the fibre, • 0.5 ml/l Ultravon EL™, • 20 ml/l 3% aqueous sodium hydroxide solutions, • 2 ml/l 10% aqueous sodium silicate solution and • 3 ml/l 35% aqueous hydrogen peroxide solution.
The fluorescent whiteners used were compounds (102)-(104) of the present invention and a commercial product having the formula [drawing 11]
The treatment is conducted at a liquor ratio of 1:40 for 30 minutes at from 25 to 95° C., then for a further 60 minutes at 95° C. and, finally, cooled to 30° C. The swatches are removed from the treatment bath, rinsed and dried at 60° C.
Due to the high application temperature of 95° C., the tested compounds must have high affinity to cotton to provide high whiteness levels. Consequently, the whiteness values are a suitable measure of affinity, i.e. high whiteness corresponds to high affinity.
Whiteness was measured according to the method of Ganz, which is described in detail in the Ciba-Geigy Review, 1973/1 and also in the article “Whiteness Measurement”, ISCC Conference on Fluorescence and the Colorimetry of Fluorescent Materials, Williamsburg, February 1972, published in the Journal of Color and Appearance, 1, No. 5 (1972).

The nature of series [3]: Determination of pH stability: appearance of 0.8 g/l solution at different pH values on storage. In kind it is physicochemical. Particulars: 0.8 g/l in drinking water, dark, 25° C. The protocol: as §1, §2
The mark [4] stands for this setting: cotton padded with pH 3 solution after 4 hours storage.
[5] abbreviates: cotton padded with pH 4 solution after 4 hours storage.
Setting [6] is: cotton padded with pH 5 solution after 4 hours storage.
The mark [7] stands for this setting: cotton padded with pH 6 solution after 4 hours storage.
[8] abbreviates: cotton padded with pH 7 solution after 4 hours storage.

For the molecule `O=S(=O)([O-])c1cc(Nc2nc(Nc3ccc(S(=O)(=O)CCO)cc3)nc(N(CCO)CCO)n2)ccc1/C=C/c1ccc(Nc2nc(Nc3ccc(S(=O)(=O)CCO)cc3)nc(N(CCO)CCO)n2)cc1S(=O)(=O)[O-].[Na+].[Na+]` [(103)], the Whiteness in series [1] (setting [4]) was 53; in series [1] (setting [5]), 115; in series [1] (setting [6]), 160; in series [1] (setting [7]), 184; in series [1] (setting [8]) it was 186. In addition, the “Whiteness Value” in series [2] is on record as 224. In addition, the Appearance of solution result in series [3] (1 hour, pH 3) is reported as “cloudy”; in series [3] (1 hour, pH 4) it was “cloudy”; in series [3] (1 hour, pH 5), “clear”; in series [3] (1 hour, pH 6) it was “clear”; in series [3] (1 hour, pH 7), “clear”; in series [3] (2 hours, pH 3), “cloudy”. Further, the Appearance of solution entry in series [3] (2 hours, pH 4) is recorded as “cloudy”; in series [3] (2 hours, pH 5), “clear”; in series [3] (2 hours, pH 6), “clear”; in series [3] (2 hours, pH 7), “clear”; in series [3] (4 hours, pH 3), “cloudy”; in series [3] (4 hours, pH 4), “cloudy”. For the same molecule, the Appearance of solution entry in series [3] (4 hours, pH 5) is “clear”; in series [3] (4 hours, pH 6) it was “clear”; in series [3] (4 hours, pH 7), “clear”; in series [3] (Immediate, pH 3), “cloudy”; in series [3] (Immediate, pH 5), “clear”; in series [3] (Immediate, pH 6) it was “clear”. In series [3] (Immediate, pH 7), the Appearance of solution entry is listed as “clear”.
For the molecule `CC(O)CN(CC(C)O)c1nc(Nc2ccc(S(=O)(=O)CCO)cc2)nc(Nc2ccc(/C=C/c3ccc(Nc4nc(Nc5ccc(S(=O)(=O)CCO)cc5)nc(N(CC(C)O)CC(C)O)n4)cc3S(=O)(=O)[O-])c(S(=O)(=O)[O-])c2)n1.[Na+].[Na+]` (stereo not drawn) [(102)], the Whiteness in series [1] (setting [4]) is 171; in series [1] (setting [5]), 192; in series [1] (setting [6]), 194; in series [1] (setting [7]), 193; in series [1] (setting [8]), 193. The “Whiteness Value” in series [2] turned out to be 234. In series [2] (whiteness only slightly lower than that of the conventional commercial FWA), the “Affinity to the fibre (judged from whiteness value)” value is “high affinity to the fibre”. The Appearance of solution result is “clear” in series [3] (1 hour, pH 4); “clear” in series [3] (1 hour, pH 5); “clear” in series [3] (1 hour, pH 6); “clear” in series [3] (1 hour, pH 7); “clear” in series [3] (2 hours, pH 4); “clear” in series [3] (2 hours, pH 5). Further, the Appearance of solution entry in series [3] (2 hours, pH 6) was “clear”; in series [3] (2 hours, pH 7), “clear”; in series [3] (4 hours, pH 4), “clear”; in series [3] (4 hours, pH 5) it was “clear”; in series [3] (4 hours, pH 6), “clear”; in series [3] (4 hours, pH 7) it was “clear”. Also, the Appearance of solution entry in series [3] (Immediate, pH 4) is “clear”; in series [3] (Immediate, pH 5), “clear”; in series [3] (Immediate, pH 6), “clear”; in series [3] (Immediate, pH 7), “clear”.
